The text below walks through data of patent publication US20240270699A1, “COMPOUNDS HAVING N-ARYLPYRIMIDIN-2-AMINE DERIVATIVES AS THERAPEUTIC AGENTS” (Lomond Therapeutics, Inc., priority 2021, published 2024).

One assay concerns the target T1, recombinant HPK1 protein (Homo sapiens, UniProt Q92918).
T1 construct: purchased Promega V6398
T1 sequence (Q92918 1-346 limits assumed): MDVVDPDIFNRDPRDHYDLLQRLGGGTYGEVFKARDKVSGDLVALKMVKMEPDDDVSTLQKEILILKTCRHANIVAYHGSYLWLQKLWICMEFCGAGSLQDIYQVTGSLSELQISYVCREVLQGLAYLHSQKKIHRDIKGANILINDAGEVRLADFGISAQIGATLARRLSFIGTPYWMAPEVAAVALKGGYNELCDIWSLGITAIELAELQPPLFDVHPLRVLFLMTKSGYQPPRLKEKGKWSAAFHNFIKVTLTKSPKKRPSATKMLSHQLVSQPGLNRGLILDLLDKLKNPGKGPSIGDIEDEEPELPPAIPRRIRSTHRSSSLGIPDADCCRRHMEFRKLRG
The assay can be described thus: Primary assay of HPK1 enzymatic activity inhibition (ADP-Glo luminescence). The conditions noted are these: recombinant HPK1, MBP substrate, 1 hour at room temperature. The class given is biochemical. On the technique in general: ADP-Glo turns the ADP formed in a reaction into a luminescent signal.

The next assay concerns Jurkat cells. In words: IL-2 release Jurkat assay (anti-CD3/anti-CD28 stimulation, IL-2 ELISA). The note with it: activation with 400 ng/mL aCD3 + 400 ng/mL aCD28, 24 hours. The class given is cell-based, human.
Setting [1] is: Table C: Jurkat, 6 μM of tested compounds, stimulated vehicle = A.
Where [2] appears, read: Table G: Jurkat, 1.0 μM of tested compounds.
Where [3] appears, read: Table B: Jurkat, 1.5 μM of tested compounds.
[4] abbreviates: Table D: Jurkat, 6 μM of tested compounds, stimulated vehicle = B.

Bounds are passed on as bounds.

Regarding `CCOC(=O)c1cnc(Nc2ccc3c(c2)CCNC3=O)nc1N[C@H](CO)c1ccccc1` [Compound 45, Ethyl 4-{[(1S)-2-hydroxy-1-phenylethyl]amino}-2-[(1-oxo-1,2,3,4-tetrahydroisoquinolin-6-yl)amino]pyrimidine-5-carboxylate], the IC50 at recombinant HPK1 protein was below 0.05 µM. Besides, the “IL-2, pg/mL stimulated” value with Jurkat cells (setting [1]) was “B (50 pg/mL≤IL-2<100 pg/mL)”.
Consider `Cc1noc(-c2cnc(Nc3ccc4c(c3)CC(C)(C)NC4=O)nc2N[C@H](CO)c2ccccc2)n1` [Compound 578, 6-[[4-[[(1S)-2-hydroxy-1-phenyl-ethyl]amino]-5-(3-methyl-1,2,4-oxadiazol-5-yl)pyrimidin-2-yl]amino]-3,3-dimethyl-2,4-dihydroisoquinolin-1-one], for which the IC50 on recombinant HPK1 protein is below 0.05 µM. In the assay on Jurkat cells (setting [2]), the “IL-2, pg/mL stimulated” value was “C (100 pg/mL≤IL-2<150 pg/mL)”.
In the case of `Cc1cc(Nc2ncc(C(=O)NCC(F)(F)F)c(N[C@H](CO)c3ccccc3)n2)ccc1S(C)(=O)=O` [Compound 490, 4-{[(1S)-2-hydroxy-1-phenylethyl]amino}-2-{[3-methyl-4-(methylsulfonyl)phenyl]amino}-N-(2,2,2-trifluoroethyl)pyrimidine-5-carboxamide], the IC50 on recombinant HPK1 protein was below 0.05 µM. Also, in the assay on Jurkat cells (setting [3]), the “IL-2, pg/mL stimulated” value is reported as “B (5.0 pg/mL≤IL-2<25.0 pg/mL)”.
Take `CCOC(=O)c1cnc(Nc2ccc(C(=O)NC)c(Cl)c2)nc1N[C@H](CO)c1ccccc1` [Compound 560, Ethyl 2-[3-chloro-4-(methylcarbamoyl)anilino]-4-[[(1S)-2-hydroxy-1-phenyl-ethyl]amino]pyrimidine-5-carboxylate]: the IC50 at recombinant HPK1 protein lay in the range of 0.05 to 0.2 µM. Further, the “IL-2, pg/mL stimulated” value in the assay on Jurkat cells (setting [4]) is reported as “D (150 pg/mL≤IL-2)”.
Turning to `CC(C)NC(=O)c1cnc(Nc2ccc3c(c2)CCN(C)C3=O)nc1N[C@H](CO)c1ccccc1` [Compound 212, 4-{[(1S)-2-hydroxy-1-phenylethyl]amino}-2-[(2-methyl-1-oxo-1,2,3,4-tetrahydroisoquinolin-6-yl)amino]-N-(propan-2-yl)pyrimidine-5-carboxamide], at recombinant HPK1 protein, the IC50 was 0.05 to 0.2 µM. The “IL-2, pg/mL stimulated” value in the assay on Jurkat cells (setting [3]) is listed as “C (25.0 pg/mL≤IL-2<35.0 pg/mL)”.
`CCOC(=O)c1cnc(Nc2ccc(S(C)(=O)=O)cc2F)nc1N[C@H](CO)c1ccccc1` [Compound 211, Ethyl 2-{[2-fluoro-4-(methylsulfonyl)phenyl]amino}-4-{[(1S)-2-hydroxy-1-phenylethyl]amino}pyrimidine-5-carboxylate]: the IC50 at recombinant HPK1 protein fell in the range of 0.05 to 0.2 µM. For the same compound, in the assay with Jurkat cells (setting [1]), the “IL-2, pg/mL stimulated” value is reported as “B (50 pg/mL≤IL-2<100 pg/mL)”.
For `CCOC(=O)c1cnc(Nc2ccc(F)c(-c3ccccc3)c2)nc1N[C@H](CO)c1ccccc1` [Compound 195, Ethyl 2-[(6-fluorobiphenyl-3-yl)amino]-4-{[(1S)-2-hydroxy-1-phenylethyl]amino}pyrimidine-5-carboxylate], the concentration for half-maximal inhibition (IC50) at recombinant HPK1 protein was 0.2 to 0.5 µM. In the assay on Jurkat cells (setting [3]), the “IL-2, pg/mL stimulated” value is listed as “C (25.0 pg/mL≤IL-2<35.0 pg/mL)”.
On to `CCOC(=O)c1cnc(Nc2ccc3c(c2)CCNC3=O)nc1N[C@@H](CO)c1ccccc1` [Compound 568, ethyl 4-[[(1R)-2-hydroxy-1-phenyl-ethyl]amino]-2-[(1-oxo-3,4-dihydro-2H-isoquinolin-6-yl)amino]pyrimidine-5-carobxylate], for which the IC50 at recombinant HPK1 protein lay in the range of 0.05 to 0.2 µM. The “IL-2, pg/mL stimulated” value in the assay with Jurkat cells (setting [3]) is recorded as “A (IL-2<5.0 pg/mL)”.
In the case of `CNC(=O)c1cnc(Nc2ccc(S(C)(=O)=O)c(F)c2)nc1N[C@H](CO)c1ccccc1` [Compound 105, 2-{[3-fluoro-4-(methylsulfonyl)phenyl]amino}-4-{[(1S)-2-hydroxy-1-phenylethyl]amino}-N-methylpyrimidine-5-carboxamide], the IC50 on recombinant HPK1 protein was in the range of 0.05 to 0.2 µM. Further, the “IL-2, pg/mL stimulated” value with Jurkat cells (setting [3]) is “C (25.0 pg/mL≤IL-2<35.0 pg/mL)”.
Take `CCOC(=O)c1cnc(Nc2ccc(C(N)=O)c(C)c2)nc1N[C@H](CO)c1ccccc1` [Compound 10, Ethyl 2-(4-carbamoyl-3-methyl-anilino)-4-[[(1S)-2-hydroxy-1-phenyl-ethyl]amino]pyrimidine-5-carboxylate]: on recombinant HPK1 protein, the IC50 fell in the range of 0.05 to 0.2 µM. Also, the “IL-2, pg/mL stimulated” value in the assay on Jurkat cells (setting [4]) is reported as “D (150 pg/mL≤IL-2)”.
As to `CCOC(=O)c1cnc(Nc2ccc(S(C)(=O)=O)c(C)c2)nc1N[C@H](CO)c1ccccc1` [Compound 166, Ethyl 4-{[(1S)-2-hydroxy-1-phenylethyl]amino}-2-{[3-methyl-4-(methylsulfonyl)phenyl]amino}pyrimidine-5-carboxylate], the IC50 at recombinant HPK1 protein is below 0.05 µM. For the same compound, the “IL-2, pg/mL stimulated” value with Jurkat cells (setting [3]) is “C (25.0 pg/mL≤IL-2<35.0 pg/mL)”.
The matching figures for `CCNC(=O)c1cnc(Nc2ccc3c(c2)CCN(C)C3=O)nc1N[C@H](CO)c1ccccc1` [Compound 119, N-ethyl-4-{[(1S)-2-hydroxy-1-phenylethyl]amino}-2-[(2-methyl-1-oxo-1,2,3,4-tetrahydroisoquinolin-6-yl)amino]pyrimidine-5-carboxamide]: below 0.05 µM and “D (35.0 pg/mL≤IL-2)”.
As for `COCCNC(=O)c1cnc(Nc2ccc(S(C)(=O)=O)c(F)c2)nc1N[C@H](CO)c1ccccc1` [Compound 401, 2-(3-fluoro-4-methylsulfonyl-anilino)-4-[[(1S)-2-hydroxy-1-phenyl-ethyl]amino]-N-(2-methoxyethyl)-pyrimidine-5-carboxamide], the IC50 on recombinant HPK1 protein is 0.05 to 0.2 µM. For the same compound, the “IL-2, pg/mL stimulated” value in the assay with Jurkat cells (setting [1]) was “A (IL-2<50 pg/mL)”.
As to `CCOC(=O)c1cnc(Nc2ccc(S(=O)(=O)CC)cc2)nc1N[C@H](CO)c1ccccc1` [Compound 168, Ethyl 2-{[4-(ethylsulfonyl)phenyl]amino}-4-{[(1S)-2-hydroxy-1-phenylethyl]amino}pyrimidine-5-carboxylate], the IC50 on recombinant HPK1 protein is 0.05 to 0.2 µM. Moreover, the “IL-2, pg/mL stimulated” value with Jurkat cells (setting [1]) was “A (IL-2<50 pg/mL)”.
The corresponding values for `CS(=O)(=O)c1ccc(Nc2ncc(C(=O)OCCO)c(N[C@H](CO)c3ccccc3)n2)cc1F` [Compound 319] are below 0.05 µM and “D (150 pg/mL≤IL-2)”.
Take `CNC(=O)c1cnc(Nc2ccc3c(c2)CCN(C)C3=O)nc1N[C@H](CO)c1ccccc1` [Compound 43, 4-{[(1S)-2-hydroxy-1-phenylethyl]amino}-N-methyl-2-[(2-methyl-1-oxo-1,2,3,4-tetrahydroisoquinolin-6-yl)amino]pyrimidine-5-carboxamide]: on recombinant HPK1 protein, the IC50 was 0.05 to 0.2 µM. Also, the “IL-2, pg/mL stimulated” value in the assay with Jurkat cells (setting [3]) is given as “D (35.0 pg/mL≤IL-2)”.
With `O=S1(=O)CCCc2cc(Nc3ncc(-c4nc(CN5CCCC5)no4)c(N[C@H](CO)c4ccccc4)n3)ccc21` [Compound 586, (2S)-2-[[2-[(1,1-dioxo-3,4-dihydro-2H-thiochromen-6-yl)amino]-5-[3-(pyrrolidin-1-ylmethyl)-1,2,4-oxadiazol-5-yl]pyrimidin-4-yl]amino]-2-phenyl-ethanol], the IC50 at recombinant HPK1 protein was below 0.05 µM. Also, the “IL-2, pg/mL stimulated” value in the assay with Jurkat cells (setting [2]) is “D (150 pg/mL≤IL-2)”.
As to `CC(C)NC(=O)c1cnc(Nc2ccc(F)c(-c3ccccc3)c2)nc1N[C@H](CO)c1ccccc1` [Compound 293, 2-[(6-fluorobiphenyl-3-yl)amino]-4-{[(1S)-2-hydroxy-1-phenylethyl]-amino}-N-(propan-2-yl)pyrimidine-5-carboxamide], at recombinant HPK1 protein, the 50% inhibitory concentration (IC50) lay within 0.2 to 0.5 µM. The “IL-2, pg/mL stimulated” value in the assay with Jurkat cells (setting [3]) is “D (35.0 pg/mL≤IL-2)”.

Usually IC50 stands for the concentration that inhibits the measured activity by half.
